Structures are written as SMILES.

The test has as its target T1, recombinant GisA, SAUSA300_0200 (Staphylococcus aureus, UniProt A0A0H2XI71).
T1 construct: His-tagged, pET28b, purified from E. coli slyD mutant by Ni-NTA; ATPase subunit alone
T1 sequence (A0A0H2XI71 1-530): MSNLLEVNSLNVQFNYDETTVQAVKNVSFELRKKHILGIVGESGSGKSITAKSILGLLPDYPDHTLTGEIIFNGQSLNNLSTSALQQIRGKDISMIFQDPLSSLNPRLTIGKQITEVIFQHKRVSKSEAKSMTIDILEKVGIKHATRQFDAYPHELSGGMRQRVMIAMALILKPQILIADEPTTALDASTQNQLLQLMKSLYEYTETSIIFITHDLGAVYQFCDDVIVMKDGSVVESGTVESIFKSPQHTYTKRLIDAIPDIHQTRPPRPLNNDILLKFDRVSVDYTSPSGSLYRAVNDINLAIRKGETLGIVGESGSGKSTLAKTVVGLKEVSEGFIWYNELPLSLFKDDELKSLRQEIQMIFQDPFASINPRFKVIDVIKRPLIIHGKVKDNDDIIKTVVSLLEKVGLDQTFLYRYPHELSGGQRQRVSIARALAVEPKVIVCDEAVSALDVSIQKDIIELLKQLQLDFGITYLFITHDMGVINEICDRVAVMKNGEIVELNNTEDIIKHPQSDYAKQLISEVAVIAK
As to the kind of experiment: ATP hydrolysis assay. The note with it: GisA alone; details only in supplement. The class given is biochemical.

With `Nc1ncnc2c1ncn2[C@@H]1O[C@H](COP(=O)(O)OP(=O)(O)OP(=O)(O)O)[C@@H](O)[C@H]1O` [ATP], the ATP hydrolysis assay entry was “recombinant GisA purified from Escherichia coli exhibits ATP hydrolysis activity”.

The values above are taken from paper PMC10355420, “The glutathione import system satisfies the Staphylococcus aureus nutrient sulfur requirement and promotes interspecies competition” (PLOS Genetics, 2023).
